Test [1] deals with T1, Adenosine receptor A2a (Homo sapiens, UniProt P29274). The experiment in a line: Antagonist activity at human adenosine 2A receptor overexpressed in HEK293 cells preincubated for 0.5 hrs followed by NECA stimulation by GloSensor cAMP assay. In kind it is functional, cell-based.
Another test is filed under the species Homo sapiens. The experiment in a line: Selectivity ratio of IC50 for antagonist activity at human adenosine 2A receptor overexpressed in HEK293 cells to IC50 for antagonist activity at human adenosine 2B receptor overexpressed in HEK293 cells. In kind it is cell-based.
The target of test [2] is T2, Adenosine receptor A2b (Homo sapiens, UniProt P29275).
T2 sequence (P29275 whole entry): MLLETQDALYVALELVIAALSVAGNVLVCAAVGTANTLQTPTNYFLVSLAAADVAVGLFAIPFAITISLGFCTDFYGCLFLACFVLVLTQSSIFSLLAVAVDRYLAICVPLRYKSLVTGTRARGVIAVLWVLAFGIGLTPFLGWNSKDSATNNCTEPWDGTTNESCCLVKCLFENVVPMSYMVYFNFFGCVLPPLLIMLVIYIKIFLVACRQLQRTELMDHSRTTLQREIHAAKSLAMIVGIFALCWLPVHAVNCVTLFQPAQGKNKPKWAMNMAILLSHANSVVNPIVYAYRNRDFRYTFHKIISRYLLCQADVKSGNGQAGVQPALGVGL
The experiment in a line: Antagonist activity at human adenosine 2B receptor overexpressed in HEK293 cells preincubated for 0.5 hrs followed by NECA stimulation by GloSensor cAMP assay. In kind it is functional, cell-based.

In test [3] the target is T2, Adenosine receptor A2b. The test can be described thus: Antagonist activity at adenosine 2B receptor (unknown origin). It counts as functional.
Test [4] has as its target T1, Adenosine receptor A2a. The test can be described thus: Antagonist activity at adenosine 2A receptor (unknown origin).
A further test deals with T3, Adenosine receptor A1 (Homo sapiens, UniProt P30542).
T3 sequence (P30542 whole entry): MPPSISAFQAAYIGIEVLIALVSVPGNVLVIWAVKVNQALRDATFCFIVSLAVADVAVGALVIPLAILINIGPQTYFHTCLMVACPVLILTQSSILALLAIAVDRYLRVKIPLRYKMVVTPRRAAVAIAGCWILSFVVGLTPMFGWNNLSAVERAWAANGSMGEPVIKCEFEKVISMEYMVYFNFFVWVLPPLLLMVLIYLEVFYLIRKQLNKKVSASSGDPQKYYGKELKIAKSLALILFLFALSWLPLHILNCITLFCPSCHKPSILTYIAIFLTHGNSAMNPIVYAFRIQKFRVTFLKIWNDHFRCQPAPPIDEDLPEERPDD
The experiment in a line: Antagonist activity at human Adenosine A1 receptor overexpressed in HEK293 cells preincubated for 0.5 hrs followed by NECA stimulation by GloSensor cAMP assay. In kind it is functional, cell-based.

Structures are written as SMILES.

T1 sequence (P29274 whole entry): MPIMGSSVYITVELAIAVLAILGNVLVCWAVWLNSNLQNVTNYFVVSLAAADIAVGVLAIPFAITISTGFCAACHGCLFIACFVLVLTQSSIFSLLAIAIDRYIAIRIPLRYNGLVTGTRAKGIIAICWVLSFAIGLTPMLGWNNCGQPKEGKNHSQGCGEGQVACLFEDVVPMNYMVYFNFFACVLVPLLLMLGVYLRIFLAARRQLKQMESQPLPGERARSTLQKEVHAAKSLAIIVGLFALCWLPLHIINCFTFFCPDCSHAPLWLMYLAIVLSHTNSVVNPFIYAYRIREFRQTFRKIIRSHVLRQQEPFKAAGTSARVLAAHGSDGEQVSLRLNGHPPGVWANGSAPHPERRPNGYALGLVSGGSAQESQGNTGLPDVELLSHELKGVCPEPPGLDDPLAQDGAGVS

Take `Cc1c(C#N)cccc1-c1cc(-c2cn(Cc3c[nH]c4cc(C#N)ccc34)nn2)nc(N)n1`: the IC50 stood at 242 nM on Adenosine receptor A2a [1] and 2.6 nM at Adenosine receptor A2b [2]. Also, in the test listed under Homo sapiens, the Ratio IC50 turned out to be 93.2.
Taken in the same sequence, the figures for `COc1ccc2c(Cn3cc(-c4cc(-c5cccc(C#N)c5C)nc(N)n4)nn3)c[nH]c2c1` were 133 nM, 27.6 nM and 4.8.
In the same order, the values of `Cc1c(C#N)cccc1-c1cc(-c2cn(Cc3csc4ccccc34)nn2)nc(N)n1` are 34.8 nM, 131 nM and 0.3.
Taken in the same sequence, the figures for `Cc1c(C#N)cccc1-c1cc(-c2cn(Cc3c[nH]c4cc(F)ccc34)nn2)nc(N)n1` were 120 nM, 13.7 nM and 8.8.
With `Cc1c(C#N)cccc1-c1cc(-c2cn(Cc3c[nH]c4cc(Cl)c(Cl)cc34)nn2)nc(N)n1`, the figures for the IC50 on Adenosine receptor A2a [1] and against Adenosine receptor A2b [2] were 6320 nM and 209 nM, respectively. Also, in the test listed under Homo sapiens, the Ratio IC50 came to 30.2.
Regarding `Cc1c(C#N)cccc1-c1cc(-c2cn(Cc3cccc4cc[nH]c34)nn2)nc(N)n1`, the figures for the IC50 against Adenosine receptor A2a [1] and against Adenosine receptor A2b [2] were 7860 nM and greater than 100000 nM, respectively.
As to `Cc1ccc2[nH]cc(Cn3cc(-c4cc(-c5cccc(C#N)c5C)nc(N)n4)nn3)c2c1`, the IC50 worked out at 103 nM on Adenosine receptor A2a [1] and 43.4 nM on Adenosine receptor A2b [2]. The Ratio IC50 in the test listed under Homo sapiens was found to be 2.4.
In the same order, the values of `Cc1c(C#N)cccc1-c1cc(-c2cn(Cc3ccc4[nH]ccc4c3)nn2)nc(N)n1` are 1010 nM, 43.1 nM and 23.5.
Regarding `Cc1c(C#N)cccc1-c1cc(-c2cn(Cc3c[nH]c4cnccc34)nn2)nc(N)n1`, the IC50 on Adenosine receptor A2a [1] came to 1910 nM; against Adenosine receptor A2b [2], 11.1 nM. Further, the Ratio IC50 in the test listed under Homo sapiens was found to be 172.
As to `Cc1c(C#N)cccc1-c1cc(-c2cn(Cc3cccc4[nH]ccc34)nn2)nc(N)n1`, the IC50 is 5820 nM against Adenosine receptor A2a [1] and greater than 100000 nM against Adenosine receptor A2b [2].
`Cc1c(C#N)cccc1-c1cc(-c2cn(Cc3c[nH]c4ccc(OC5CCCC5)cc34)nn2)nc(N)n1`: the IC50 on Adenosine receptor A2a [1] is 97.4 nM; on Adenosine receptor A2b [2] it was 349 nM. Besides, the Ratio IC50 in the test listed under Homo sapiens is 0.3.
With `Cc1c(C#N)cccc1-c1cc(-c2cn(Cc3c[nH]c4cc(OC(C)C)ccc34)nn2)nc(N)n1`, the IC50 at Adenosine receptor A2a [1] turned out to be 3850 nM; on Adenosine receptor A2b [2], 30.6 nM. Also, the Ratio IC50 in the test filed under Homo sapiens was determined as 126.
As for `Cc1c(C#N)cccc1-c1cc(-c2cn(Cc3c[nH]c4ccc(F)cc34)nn2)nc(N)n1`, the IC50 on Adenosine receptor A2a [1] is 63.3 nM; on Adenosine receptor A2b [2] it was 14.3 nM. The Ratio IC50 in the test listed under Homo sapiens was determined as 4.4.
Consider `Cc1c(C#N)cccc1-c1cc(-c2cn(Cc3cc4ccccc4[nH]3)nn2)nc(N)n1`, for which, at Adenosine receptor A2b [2], it took 654 nM to reach half-maximal inhibition (IC50).
Turning to `Cc1c(C#N)cccc1-c1cc(-c2cn(Cc3ccc4cc[nH]c4c3)nn2)nc(N)n1`, the values for the IC50 against Adenosine receptor A2a [1] and on Adenosine receptor A2b [2] were 427 nM and 134 nM, respectively. The Ratio IC50 in the test listed under Homo sapiens is 3.2.
In the case of `Cc1c(C#N)cccc1-c1cc(-c2cn(Cc3cn(C)c4ccccc34)nn2)nc(N)n1`, the IC50 at Adenosine receptor A2a [1] and against Adenosine receptor A2b [2] was greater than 100000 nM each time.
At Adenosine receptor A2b [2], `Cc1c(C#N)cccc1-c1cc(-c2cn(Cc3c[nH]c4cccnc34)nn2)nc(N)n1` showed an IC50 of 3.6 nM.
On to `Cc1c(C#N)cccc1-c1cc(-c2cn(Cc3csc4c3CCCC4)nn2)nc(N)n1`, for which the figures for the IC50 on Adenosine receptor A2a [1] and against Adenosine receptor A2b [2] were 11.6 nM and 101 nM, respectively. In addition, the Ratio IC50 in the test filed under Homo sapiens amounted to 0.1.
`COc1ccc2[nH]cc(Cn3cc(-c4cc(-c5cccc(C#N)c5C)nc(N)n4)nn3)c2c1` displayed an IC50 on Adenosine receptor A2b [2] of 44.7 nM. In other words, the double-digit nanomolar range.
Regarding `COc1ncc(C2=CCOCC2)c2sc(NC(=O)N3CC[C@@]4(CCCOC4)C3)nc12` [MUVADENANT], the IC50 against Adenosine receptor A2b [3] and against Adenosine receptor A2a [4] was less than 10 nM throughout.
In the case of `COC(=O)c1ccc2c(Cn3cc(-c4cc(-c5cccc(C#N)c5C)nc(N)n4)nn3)c[nH]c2c1`, the results for the IC50 at Adenosine receptor A2a [1] and against Adenosine receptor A2b [2] were greater than 100000 nM and 97.7 nM, respectively.
For `Cc1c(C#N)cccc1-c1cc(-c2cn(Cc3c[nH]c4cc(S(C)(=O)=O)ccc34)nn2)nc(N)n1`, the results for the IC50 against Adenosine receptor A2a [1] and on Adenosine receptor A2b [2] were 431 nM and 3.4 nM, respectively. Moreover, the Ratio IC50 in the test listed under Homo sapiens turned out to be 127.
Consider `Cc1c(C#N)cccc1-c1cc(-c2cn(Cc3cccc(C(C)(C)O)n3)nn2)nc(N)n1` [ETRUMADENANT], for which the Ki on Adenosine receptor A2b [3] is 3.16 nM; on Adenosine receptor A2a [4] it was 0.851 nM. In addition, the values for the IC50 at Adenosine receptor A2a [1], on Adenosine receptor A1 and against Adenosine receptor A2b [2] were 7.5 nM, 87.3 nM and 31.4 nM, respectively. Besides, the Ratio IC50 in the test filed under Homo sapiens came to 0.2.
On to `Cc1c(C#N)cccc1-c1cc(-c2cn(Cc3cnc4ccccn34)nn2)nc(N)n1`, for which the IC50 against Adenosine receptor A2a [1] and against Adenosine receptor A2b [2] was greater than 100000 nM throughout.
Take `Cc1c(C#N)cccc1-c1cc(-c2cn(Cc3c[nH]c4ccc(Cl)cc34)nn2)nc(N)n1`: the 50% inhibitory concentration (IC50) against Adenosine receptor A2a [1] is 244 nM; against Adenosine receptor A2b [2], 45.4 nM. Also, the Ratio IC50 in the test listed under Homo sapiens stood at 5.4.
For `Cc1c(C#N)cccc1-c1cc(-c2cn(Cc3c[nH]c4ccc(S(C)(=O)=O)cc34)nn2)nc(N)n1`, the IC50 was determined as 18.3 nM on Adenosine receptor A2a [1] and 9.7 nM on Adenosine receptor A2b [2]. Also, the Ratio IC50 in the test filed under Homo sapiens came to 1.9.
Taken in the same sequence, the figures for `Cc1c(C#N)cccc1-c1cc(-c2cn(Cc3n[nH]c4ccccc34)nn2)nc(N)n1` were 129 nM, 41.7 nM and 3.1.
Taken in the same sequence, the figures for `Cc1c(C#N)cccc1-c1cc(-c2cn(Cc3c[nH]c4cc(Cl)ccc34)nn2)nc(N)n1` were 753 nM, 55.8 nM and 13.5.
For `Cc1c(C#N)cccc1-c1cc(-c2cn(Cc3c[nH]c4cccc(Cl)c34)nn2)nc(N)n1`, the 50% inhibitory concentration (IC50) is 172 nM against Adenosine receptor A2a [1] and 316 nM at Adenosine receptor A2b [2]. In addition, the Ratio IC50 in the test filed under Homo sapiens was 0.5.
Regarding `Cc1c(C#N)cccc1-c1cc(-c2cn(Cc3c[nH]c4c(Cl)cccc34)nn2)nc(N)n1`, the IC50 stood at 1140 nM against Adenosine receptor A2a [1] and 1080 nM on Adenosine receptor A2b [2]. Besides, the Ratio IC50 in the test filed under Homo sapiens is 1.1.
In the same order, the values of `Cc1ccc2c(Cn3cc(-c4cc(-c5cccc(C#N)c5C)nc(N)n4)nn3)c[nH]c2c1` are 324 nM, 48.6 nM and 6.7.
The compound `Cc1c(C#N)cccc1-c1cc(-c2cn(Cc3c[nH]c4cc(OC5CCCC5)ccc34)nn2)nc(N)n1` had an IC50 against Adenosine receptor A2b [2] of 71.6 nM. This counts as double-digit nanomolar.
As for `Cc1c(C#N)cccc1-c1cc(-c2cn(Cc3c[nH]c4ncccc34)nn2)nc(N)n1`, the IC50 was found to be 2260 nM on Adenosine receptor A2a [1] and 215 nM against Adenosine receptor A2b [2]. Further, the Ratio IC50 in the test listed under Homo sapiens amounted to 10.5.
Take `COC(=O)c1ccc2[nH]cc(Cn3cc(-c4cc(-c5cccc(C#N)c5C)nc(N)n4)nn3)c2c1`: the IC50 against Adenosine receptor A2a [1] turned out to be 70.2 nM; on Adenosine receptor A2b [2], 38.2 nM. Further, the Ratio IC50 in the test filed under Homo sapiens was found to be 1.8.
Taken in the same sequence, the figures for `Cc1c(C#N)cccc1-c1cc(-c2cn(Cc3c[nH]c4ccc(OC(C)C)cc34)nn2)nc(N)n1` were 69.9 nM, 103 nM and 0.7.
In the same order, the values of `Cc1c(C#N)cccc1-c1cc(-c2cn(Cc3c[nH]c4ccncc34)nn2)nc(N)n1` are 169 nM, 11.6 nM and 14.6.
Taken in the same sequence, the figures for `Cc1c(C#N)cccc1-c1cc(-c2cn(Cc3c[nH]c4ccccc34)nn2)nc(N)n1` were 112 nM, 43.8 nM and 2.6.

The values are drawn from ChEMBL document CHEMBL5528085, “Subtle Structural Changes across the Boundary between A2AR/A2BR Dual Antagonism and A2BR Antagonism: A Novel Class of 2-Aminopyrimidine-Based Derivatives” (J Med Chem, 2024).
